Values joined by “and” are separate entries in the source; they are usually repeats but may differ in a detail not shown here. Identical values can stand only once.
Tested on: E. coli
Assay: Antimicrobial effectiveness: E. coli contacted with sample for 30 seconds, survivors calculated
Assay type: cell-based
Settings: 30 seconds contact
Protocol: The antimicrobial effectiveness of the present invention in combination with octenyl succinic acid was tested. In this application, the test organism was E. coli, which was contacted with either the control or the stated sample for 30 seconds, and the survivors were calculated.

| Compound | Percent Reduction (25 ppm active) | Survivors (25 ppm active) | Percent Reduction (50 ppm active) | Percent Reduction (75 ppm active) | Survivors (75 ppm active) | Percent Reduction (160 ppm active) | Survivors (160 ppm active) | Percent Reduction (320 ppm active) [%] | Survivors (320 ppm active) | Percent Reduction (480 ppm active) [%] | Survivors (480 ppm active) |
| --- | --- | --- | --- | --- | --- | --- | --- | --- | --- | --- | --- |
| CCCCCCCCCCCC(=O)N[C@@H](CCCN=C(N)N)C(=O)OCC [LA, ethyl lauroyl arginate] | 96.494% and 96.299% | 5,400,000 org/ml and 5,700,000 org/ml | 99.851% and 99.926% | 99.979% and 99.975% | 33,000 org/ml and 39,000 org/ml | – | – | – | – | – | – |
| octenyl succinic acid [OSA] | – | – | – | – | – | 84.351% and 84.805% | 24,100,000 org/ml and 23,400,000 org/ml | 99.999 | 2,000 org/ml and 2,200 org/ml | 99.999 | 1,900 org/ml and 1,920 org/ml |

Reference: patent US20100324137A1, “LAURIC ARGINATE AS A CONTACT ANTIMICROBIAL” (DIVERSEY, INC., priority 2009, published 2010)
